Drawing on PubChem BioAssay AID1863 (Southern Research Specialized Biocontainment Screening …, 2009), this text covers IC50 for 93 molecules.

A value given as a limit tells only on which side of the number the result lay.

For this assay, the system named is S. Typhimurium PhoP-regulated promoter GFP reporter, 4 h. Put plainly: PhoP-dependent GFP reporter repression – Salmonella Typhimurium, primary screen (AID 1863).

Turning to `Cc1conc1NC(c1cccs1)c1ccc2cccnc2c1O` (stereo not drawn), the IC50 was 60.9 µM.

As for `CC(=O)NC(c1ccc(C)cc1)c1cc([N+](=O)[O-])c2cccnc2c1O` (stereo not drawn), the IC50 is 36.8 µM.

Turning to `CCC(C)(C)c1ccc(OCCCC[n+]2ccccc2)c(C(C)(C)CC)c1`, the IC50 is 38.9 µM.

Consider `COc1ccc(/C=N/Nc2cc(C)nc3c(C)cccc23)cc1`, for which the IC50 was 80.6 µM.

As for `CC(=O)c1c(C)n([O-])c2ccccc2[n+]1=O`, the IC50 is 119 µM.

On to `CCn1cc(C(=O)O)c(=O)c2cc(F)c(N3CCN(C(=O)Nc4ccccc4)CC3)cc21`, for which the IC50 is 32.1 µM.

As to `CCCCCCCCCCCCCCCCn1cc[n+](CC(C)=O)c1`, the IC50 was 31.8 µM.

In the case of `COc1ccccc1CNCC(O)Cn1c2ccccc2c2ccccc21` (stereo not drawn), the IC50 is 104 µM.

`Cc1ccc(Cn2c(=N)n(CC(=O)c3ccc([N+](=O)[O-])cc3)c3ccccc32)cc1`: the IC50 was 143 µM.

`O=c1[nH]c2ccccc2n2c(=S)[nH]nc12`: the IC50 was 39.4 µM.

With `COc1cccc(Nc2nc(NCC3CCCO3)c3ccccc3n2)c1` (stereo not drawn), the IC50 is 82 µM.

With `CN(C)c1ccc(O)c2c1CC1CC3C(N(C)C)C(=O)C(C(N)=O)=C(O)[C@@]3(O)C(=O)C1=C2O` (stereo partly drawn), the IC50 is 9.35 µM.

For the molecule `CCCNC(=O)c1cn(CC)c2cc(N3CCN(C)CC3)c(F)cc2c1=O`, the IC50 was 25.8 µM.

Regarding `COc1c(N2CCN(C(=S)Nc3ccc(F)cc3)C(C)C2)c(F)cc2c(=O)c(C(=O)O)cn(C3CC3)c12` (stereo not drawn), the half-maximal inhibitory concentration (IC50) was 7.48 µM.

With `CCOc1cc(/C=N/N=C(N)N)ccc1OCc1ccc(Cl)cc1`, the IC50 was 45.9 µM.

For the molecule `C=CC1=C(C(=O)O)N2C(=O)[C@@H](NC(=O)/C(=N/OCC(=O)O)c3csc(N)n3)[C@H]2SC1`, the IC50 was 22.4 µM.

Regarding `Clc1ccc(OCCn2ccnc2)c2ccccc12`, the IC50 is 85.6 µM.

`NC1=NC[C@H](Cc2ccc(O)cc2)N1CCC12CC3CC(CC(C3)C1)C2`: the IC50 was 75.3 µM.

Turning to `CC(C)CCNCC(O)CON=C1c2ccccc2-c2ccccc21` (stereo not drawn), the IC50 is 123 µM.

Turning to `CCCCOc1ccc(Br)cc1CSC(=N)N`, the IC50 is 89.9 µM.

On to `O=C(N/N=C/c1cc([N+](=O)[O-])ccc1O)C1CC1`, for which the IC50 is 66.5 µM.

With `O=CN/N=C/c1c(O)ccc2ccccc12`, the IC50 was 71.9 µM.

For the molecule `CCCCCCCCCC[n+]1cccc2c3ccccc3ccc21`, the IC50 was 23.1 µM.

For the molecule `CCCCCCCCCCCCCCCC[n+]1cccc(C(=O)N(CC)CC)c1`, the IC50 was 25.3 µM.

For `Cc1cc(C(=O)N/N=C/c2ccc([N+](=O)[O-])s2)n[nH]1`, the IC50 was 42.6 µM.

For the molecule `CNc1cc(Cl)c2nonc2c1[N+](=O)[O-]`, the IC50 is 37 µM.

In the case of `Cc1ccccc1NC(=O)CCC(=O)N/N=C/c1cc([N+](=O)[O-])ccc1O`, the IC50 was 95.7 µM.

As to `Clc1ccc(-c2c[n+](Cc3ccc(Cl)cc3Cl)c3n2CCCCC3)cc1`, the IC50 was 125 µM.

`Nc1c(Cl)ncnc1N/N=C/c1ccccn1`: the IC50 was 30.8 µM.

Take `O=C(NC(CO)Cc1ccc([N+](=O)[O-])cc1)C(Cl)Cl` (stereo not drawn): the IC50 was 9.97 µM.

Consider `CCn1cc(C(=O)O)c(=O)c2cc(F)c(N3CCN(C(=S)Nc4ccccc4OC)CC3)cc21`, for which the IC50 was 10.9 µM.

On to `CCNC(=S)NNC(=O)c1ccccn1`, for which the IC50 was 62.6 µM.

`CCN1CCN(C(c2ccc(C(F)(F)F)cc2)c2ccc3cccnc3c2O)CC1` (stereo not drawn): the IC50 was 55.1 µM.

In the case of `Cc1nc2c(=O)n(C)c(=O)nc-2n(C)n1`, the IC50 is 1.15 µM.

Consider `CCCCCCCCCCCCCCCC[n+]1cccc2ccccc21`, for which the IC50 is 24.9 µM.

In the case of `Nc1nonc1C(=O)N/N=C/c1cc(Br)ccc1O`, the IC50 was 17.1 µM.

As to `CCCCC(CC)CN=C(N)NC(N)=NCCCCCCN=C(N)NC(N)=NCC(CC)CCCC` (stereo not drawn), the IC50 is 7.11 µM.

Consider `Cc1nc(N)nc(N)c1/C=C/C(C)(C)c1ccc(Cl)cc1`, for which the IC50 is 18.5 µM.

Regarding `O=C(N[C@H](CO)[C@H](O)c1ccc([N+](=O)[O-])cc1)C(Cl)Cl`, the IC50 was 9.52 µM.

Turning to `CN(C)c1ccc(/C=C/c2ccc3c4ccccc4ccc3[n+]2-c2ccccc2)cc1`, the IC50 is 21 µM.

Regarding `COc1cc(C)c(Cc2cnc(N)nc2N)cc1OC`, the IC50 is 11.7 µM.

For `Clc1ccc(CN2CCC(c3nc4ccc(Cl)cc4[nH]3)CC2)cc1`, the IC50 is 79.6 µM.

Regarding `O=[N+]([O-])c1cc(/C=N/Nc2nc3ccccc3[nH]2)c(O)cc1O`, the IC50 is 24.3 µM.

On to `CC(C)(C)/C(O)=C/c1nc2cc(Cl)ccc2oc1=O`, for which the IC50 was 99.5 µM.

On to `CO[C@H]1C=CO[C@@]2(C)Oc3c(C)c(O)c4c(O)c(c(C=NN5CCN(C)CC5)c(O)c4c3C2=O)NC(=O)C(C)=CC=C[C@H](C)[C@H](O)[C@@H](C)[C@@H](O)[C@@H](C)[C@H](OC(C)=O)[C@@H]1C`, for which the IC50 was 6.31 µM.

Consider `CCN(CC)CCOc1ccc2c(c1)C(=NNC(=O)c1ccccn1)c1cc(OCCN(CC)CC)ccc1-2`, for which the IC50 is 42.5 µM.

With `C=CCNc1ncnc2c1[nH]c1ccc(Cl)cc12`, the half-inhibitory concentration (IC50) was 137 µM.

With `COc1cc(/C=C/[N+](=O)[O-])ccc1O`, the IC50 was 82.5 µM.

Regarding `CC[n+]1c(/C=C/C=C/c2ccc(N(C)C)cc2)sc2ccccc21`, the IC50 is 69.6 µM.

For the molecule `Cc1ccc(S(=O)(=O)Nc2cc(Cl)c(O)c3ncccc23)cc1`, the IC50 is 52.4 µM.

Consider `CC(=O)NC(c1cccs1)c1cc([N+](=O)[O-])c2cccnc2c1O` (stereo not drawn), for which the IC50 is 38.9 µM.

For `Oc1c(CN2CCOCC2)cc(COCc2ccccc2)c2cccnc12`, the IC50 was 97.8 µM.

On to `NC1CCN(c2c(F)cc3c(=O)c(C(=O)O)cn(C4CC4)c3c2Cl)C1` (stereo not drawn), for which the IC50 is under 0.23 µM.

As for `CCCCCCCCCCCCCCCC[N+](C)(C)CC`, the IC50 is 24.4 µM.

For `O=Cc1ccc(O)c2ncccc12`, the IC50 was 10.2 µM.

For `Nc1ccc2c(c1)C(=O)C(=O)c1ccccc1-2`, the IC50 was 11.9 µM.

Consider `O=C(CSc1ccccn1)N/N=C/c1cc([N+](=O)[O-])ccc1O`, for which the IC50 is 58 µM.

As for `CN1CCc2c(sc(NC(=O)c3ccc([N+](=O)[O-])o3)c2C(N)=O)C1`, the IC50 was 52.8 µM.

As for `COc1cnc(-c2ccccn2)[nH]c1=O`, the IC50 is 55.2 µM.

In the case of `COC12C(COC(N)=O)C3=C(C(=O)C(C)=C(N)C3=O)N1CC1C2N1C` (stereo not drawn), the IC50 is 16.3 µM.

Regarding `O=[N+]([O-])c1ccc(N/N=C/c2ccc[nH]2)cc1`, the IC50 is 75 µM.

As for `Nc1[nH]c(=O)ncc1F`, the IC50 was 29.2 µM.

For `Cc1cc2nc3ccc(=[N+](C)C)cc-3sc2cc1N`, the IC50 is 32.3 µM.

As to `CC(=O)NC(c1cccc([N+](=O)[O-])c1)c1ccc2cccnc2c1O` (stereo not drawn), the IC50 was 105 µM.

For `Cc1ccc(Nc2cc(C)c3c(O)cccc3n2)cc1C`, the IC50 is 75.3 µM.

In the case of `Cc1ccc(Nc2c3c(nc4ccccc24)CCC3)cc1`, the IC50 is 137 µM.

`O=C(C[n+]1cc(-c2ccc(Cl)c(Cl)c2)n2c1CCC2)N1c2ccccc2Sc2ccccc21`: the IC50 is 72.7 µM.

For `O=[N+]([O-])c1ccc(O)c(/C=N/Nc2ccccn2)c1`, the IC50 was 17 µM.

Turning to `C#CCOCCOCCOCCNc1nc(N2CCN(C(=O)CCCCCCCCCCNC(=O)[C@H]([C@@H](C)CC)n3cc(CCCCN=C(N)N)nn3)CC2)nc(N2CCN(C(=O)CCCCCCCCCCNC(=O)[C@H]([C@@H](C)CC)n3cc(CCCCN=C(N)N)nn3)CC2)n1`, the IC50 is 78.7 µM.

`Cc1onc(-c2ccccc2)c1C(=O)NC(=S)NNC(=O)c1ccc(O)cc1O`: the IC50 is 111 µM.

For `COc1ccc(OCC(O)CNc2ccc(Br)cc2)cc1` (stereo not drawn), the IC50 was 37.2 µM.

As for `CNC[C@H](CC1CCCCC1)NC[C@H](Cc1ccccc1)NCCC12CC3CC(CC(C3)C1)C2`, the IC50 is 18.1 µM.

Turning to `CCn1cc(C(=O)O)c(=O)c2cc(F)c(N3CCN(C(=S)NC(=O)c4ccccc4C)CC3)cc21`, the IC50 was 13.5 µM.

For the molecule `Nc1nc2ccccc2n1CCOc1ccccc1Cl`, the IC50 is 138 µM.

For `CC[n+]1c(/C=C/N(C)c2ccccc2)n(-c2ccccc2)c2ccc(-c3nc4ccccc4s3)cc21`, the IC50 was 26.5 µM.

As to `C#CCOCCOCCOCCNc1nc(N2CCN(C(=O)CCCCCCCCCCNC(=O)[C@H](CCCCN)n3cc(C[C@@H](C)CC)nn3)CC2)nc(N2CCN(C(=O)CCCCCCCCCCNC(=O)[C@H](CCCN=C(N)N)n3cc(C[C@@H](C)CC)nn3)CC2)n1`, the IC50 is 80.9 µM.

Turning to `O=C(CN1CCCC1)N/N=C/c1c(O)ccc2ccccc12`, the IC50 is 56.4 µM.

On to `C/C(=C\C(=O)OCCCCCCCCC(=O)O)C[C@@H]1OC[C@H](C[C@@H]2O[C@H]2[C@@H](C)[C@H](C)O)[C@@H](O)[C@H]1O`, for which the IC50 is 10.5 µM.

Consider `CCn1cc(C(=O)NCCCO)c(=O)c2cc(F)c(N3CCN(C)CC3)cc21`, for which the IC50 was 25.5 µM.

`CCC(C)N1CCC2(CC1)N=c1c(c3c4c5c(C)c(O)c3c(O)c1=NC(=O)C(C)=CC=C[C@H](C)[C@H](O)[C@@H](C)[C@@H](O)[C@@H](C)[C@H](OC(C)=O)[C@H](C)[C@@H](OC)C=CO[C@@](C)(O5)C4=O)N2` (stereo partly drawn): the IC50 was 2.72 µM.

`CC1CCC(C(C)C)C(OC(=O)Cn2c(COc3ccccc3)[n+](C)c3ccccc32)C1` (stereo not drawn): the IC50 was 72.3 µM.

Take `Cc1ccccc1OCc1n(CC(=O)OC2CC(C)CCC2C(C)C)c2ccccc2[n+]1C` (stereo not drawn): the IC50 was 71 µM.

As to `CCn1cc(C(=O)O)c(=O)c2cc(F)c(N3CCN(C(=S)NC(=O)c4ccc(OC)cc4)CC3)cc21`, the IC50 is 11.3 µM.

As to `O=C(NC(=S)NNC(=O)c1ccccc1O)c1ccco1`, the IC50 is 71.5 µM.

With `Clc1ccc(Cl)c(OCCCCNCc2ccccc2)c1`, the IC50 was 123 µM.

For the molecule `Cc1nc(N)c(Cc2ccc(Cl)cc2Cl)c(N)n1`, the IC50 was 105 µM.

For the molecule `C#CCOCCOCCOCCNc1nc(N2CCN(C(=O)CCCCCCCCCCNC(=O)[C@H]([C@@H](C)CC)n3cc(CCCCN=C(N)N)nn3)CC2)nc(N2CCN(C(=O)CCCCCCCCCCNC(=O)[C@H](CCCN=C(N)N)n3cc(C[C@@H](C)CC)nn3)CC2)n1`, the IC50 was 75.2 µM.

On to `NCC12CC3CC(C1)CC(c1ccc(Br)cc1)(C3)C2`, for which the IC50 is 61.6 µM.

Turning to `CCCCCOc1ccc(CSC(=N)N)cc1[N+](=O)[O-]`, the IC50 is 82.7 µM.

`Cc1cc(C)c(NC(=O)c2cn3c4c(c(N5CCN(C)CC5)c(F)cc4c2=O)OCC3C)c(C)c1` (stereo not drawn): the IC50 is 20.3 µM.

`CN1CCN(C(c2ccc(C(F)(F)F)cc2)c2cc(Cl)c3cccnc3c2O)CC1` (stereo not drawn): the IC50 was 34 µM.

On to `O=[N+]([O-])c1ccc(O)c2ncccc12`, for which the IC50 was 3.48 µM.

For the molecule `C(=N\Nc1ccccn1)/c1cccnc1`, the IC50 is 40.5 µM.

The term IC50 denotes the concentration that inhibits the measured activity by half.
